In PubChem BioAssay (NCI):
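Compound exposure: 48 hours, 5 concentrations, 96-well plates. Here, GI50 denotes the concentration required for 50% inhibition of growth. At the TGI there is no net growth.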

Key:
Assay in all cases: DTP human tumour cell line panel, 48 h
786-0 renal = system: 786-0 renal
COLO 205 colon = system: COLO 205 colon
MDA-MB-231 breast = system: MDA-MB-231 breast
MDA-MB-435 = system: MDA-MB-435
RXF 393 renal = system: RXF 393 renal
SK-MEL-5 melanoma = system: SK-MEL-5 melanoma
SN12C renal = system: SN12C renal
SNB-19 CNS = system: SNB-19 CNS
U251 CNS = system: U251 CNS

| SMILES | TGI (786-0 renal) | TGI (COLO 205 colon) | TGI (MDA-MB-231 breast) | TGI (MDA-MB-435) | TGI (RXF 393 renal) | TGI (SK-MEL-5 melanoma) | TGI (SN12C renal) | TGI (SNB-19 CNS) | TGI (U251 CNS) | GI50 (COLO 205 colon) | GI50 (MDA-MB-231 breast) | GI50 (MDA-MB-435) | GI50 (RXF 393 renal) | GI50 (SK-MEL-5 melanoma) | GI50 (SNB-19 CNS) | GI50 (U251 CNS) |
| --- | --- | --- | --- | --- | --- | --- | --- | --- | --- | --- | --- | --- | --- | --- | --- | --- |
| C=C(C)[C@@H]1CC[C@]2(C(=O)OC3OC(COC4OC(CO)C(OC5OC(C)C(O)C(O)C5O)C(O)C4O)C(O)C(O)C3O)CC[C@]3(C)[C@H](CC[C@@H]4[C@@]5(C)CC[C@H](O)[C@@](C)(CO)[C@@H]5CC[C@]43C)[C@@H]12 (some centres undefined) | > 10 µM | 3.2 µM | > 9.18 µM | > 10 µM | > 10 µM | > 8.46 µM | 9.79 µM | > 10 µM | > 10 µM |  |  |  |  |  |  |  |
| CC(=O)c1cc(S(=O)(=O)c2ccc(O)c(C(C)=O)c2)ccc1O | > 100 µM | > 100 µM | > 100 µM | > 100 µM | > 100 µM | > 100 µM | > 100 µM | > 100 µM | > 100 µM |  |  |  |  |  |  |  |
| COc1ccc(C(=O)/C=C/c2ccc(OCCCOc3ccc(/C=C/C(=O)c4ccc(OC)c(OC)c4)cc3)cc2)cc1OC | > 100 µM | > 100 µM | > 100 µM | > 100 µM | > 100 µM | > 100 µM | > 100 µM | > 100 µM | > 100 µM |  |  |  |  |  |  |  |
| Cn1cnc(/C=C/C#N)c1 |  | > 100 µM | > 100 µM | > 100 µM | > 100 µM | > 100 µM | > 100 µM | > 100 µM | > 100 µM |  |  |  |  |  |  |  |
| COCCN(C(=O)c1ccccc1)C1CCC(=O)c2[nH]c3ccccc3c21 (centres undefined) | 11.9 µM | 31.5 µM | 15.9 µM | 17.5 µM | 15.2 µM | 20.2 µM | 21.1 µM | 24.3 µM | 3.99 µM |  |  |  |  |  |  |  |
| CCn1c(SCc2nnc(Nc3ccccc3)s2)nc2ccccc2c1=O | 3.97 µM | 43.2 µM | 10.2 µM | > 100 µM | 19.1 µM | 32.5 µM | 18.2 µM | 13.4 µM | 5.3 µM |  |  |  |  |  |  |  |
| COC(C[C@H]1CCCC[C@]1(O)/C(=C\CO[Si](C(C)C)(C(C)C)C(C)C)Sc1ccccc1)OC | > 100 µM | 47.4 µM | 49.8 µM | > 100 µM | 55.3 µM | > 100 µM | > 100 µM | > 100 µM | 51.8 µM |  |  |  |  |  |  |  |
| C/C=C\C(CC(=O)NCCc1c[nH]c2ccccc12)CC(=O)OC (centres undefined) | > 100 µM | > 100 µM | > 100 µM | > 100 µM | > 100 µM | > 100 µM |  | > 100 µM | > 100 µM |  |  |  |  |  |  |  |
| C=C(C)C(=O)O[C@H]1CC2(CO)O[C@@H]2CC/C(COC(C)=O)=C/C2OC(=O)C(=C)[C@@H]21 (some centres undefined) | > 31.6 µM | 48.4 µM | > 100 µM | > 61.3 µM | 26.4 µM | > 100 µM | > 100 µM | > 100 µM | > 100 µM |  |  |  |  |  |  |  |
| O=C1c2ccccc2C2(c3ccc(Cl)cc3)N[C@@H]3CCCC[C@@H]3N12 (some centres undefined) | > 100 µM | > 100 µM | > 100 µM | > 100 µM | > 100 µM | > 100 µM | > 100 µM | > 100 µM | > 100 µM |  |  |  |  |  |  |  |
| O=c1[nH]nc(N/N=C\c2ccc(Cl)cc2)c2ccccc12 | 30.6 µM | 45.9 µM | 43.7 µM | 32.4 µM | 56.2 µM | 39.3 µM | 73 µM | 43.1 µM | 38.2 µM |  |  |  |  |  |  |  |
| CC(=O)OCC1(CNc2nc(N)ncc2C#N)CC(CCc2ccccc2)C1 (centres undefined) | > 100 µM | > 100 µM | > 100 µM | > 100 µM | > 100 µM | 42.8 µM | > 100 µM |  | > 100 µM |  |  |  |  |  |  |  |
| CCCOC1OC(CS(=O)(=O)O)C(OC(C)=O)C(OC(C)=O)C1OC(C)=O (centres undefined) |  | > 100 µM | > 100 µM | > 100 µM | > 100 µM | > 100 µM | > 100 µM | > 100 µM | > 100 µM |  |  |  |  |  |  |  |
| CN1CCCC(OC(=O)c2cc3cc(CCl)ccc3oc2=O)C1 (centres undefined) | 58.4 µM | 35.7 µM | 52.1 µM | 41.6 µM | 54.6 µM | 33.9 µM | 43.6 µM | > 100 µM | 30.1 µM |  |  |  |  |  |  |  |
| CCOC(=O)NC(OCc1ccccc1)(C(=O)OC)C(F)(F)F (centres undefined) |  | > 100 µM | > 100 µM | > 100 µM | > 100 µM | > 100 µM | > 100 µM | > 100 µM | > 100 µM |  |  |  |  |  |  |  |
| COC(=O)NC(Nc1ccc(C)cc1)(C(F)(F)F)C(F)(F)F | > 100 µM | > 100 µM | > 100 µM | > 100 µM | 93.9 µM | > 100 µM | > 100 µM | > 100 µM | > 100 µM |  |  |  |  |  |  |  |
| CCOC(=O)c1nc2ccccc2nc1Nc1ccc(F)cc1 | > 72.2 µM | > 100 µM | 24.2 µM | > 100 µM | 26.7 µM | > 100 µM | > 100 µM | 46.6 µM | 70.6 µM |  |  |  |  |  |  |  |
| Cc1cc(C)c(C#N)c(SC(=S)NC(=O)c2ccccc2)n1 | > 100 µM | > 100 µM | > 100 µM | > 100 µM | > 100 µM | > 100 µM | > 100 µM | > 100 µM | > 100 µM |  |  |  |  |  |  |  |
| CCn1c(O)c(C(=O)NC(C)c2ccc([N+](=O)[O-])cc2)c(=O)n(CC)c1=S (centres undefined) | 11.7 µM | 3.29 µM | 10.8 µM | 13.6 µM | 12 µM | 11.3 µM | 15 µM | 10.8 µM | 13.1 µM |  |  |  |  |  |  |  |
| O=C1NC(=S)N/C1=C\c1ccc(Sc2ccccc2C(=O)O)s1 | > 100 µM | > 100 µM | > 100 µM | > 100 µM | > 100 µM | > 100 µM | > 100 µM | > 100 µM | > 100 µM |  |  |  |  |  |  |  |
| COc1ccc(-c2cc(-c3ccc(OC)c(OC)c3)nc(SCCCC(=O)NO)n2)cc1 |  | 5.98 µM | 8.78 µM | 4.15 µM | 2.5 µM | 3.68 µM |  | 39.1 µM | 5.78 µM | 1.75 µM | 1.94 µM | 1.27 µM | 0.587 µM | 1.82 µM | 2.54 µM | 1.76 µM |
| C#Cc1cccc(Nc2ncnc3cc(OCCOC)c(OCCOC)cc23)c1 | 48 µM | > 100 µM | 44.2 µM | > 100 µM | 34.9 µM | > 78.9 µM | > 51.6 µM | 92 µM | 99 µM |  |  |  | 3.97 µM |  |  |  |
